Assay results: ChEMBL document CHEMBL5154644, “Design, Synthesis, and Structure-Activity Relationship Optimization of Pyrazolopyrimidine Amide Inhibitors of Phosphoinositide 3-Kinase γ (PI3Kγ)” (J Med Chem, 2022)

Tests used:
[1] = Plasma protein binding in cynomolgus monkey at 1 mg/kg, iv; format: ADME, organism-based, Macaca fascicularis; details: read-out: PPB (converted)
[2] = AUC(0 to infinity) in cynomolgus monkey at 1 mg/kg, iv; format: ADME, organism-based, Macaca fascicularis; design: time infinity, dose 1 mg/kg, route iv; details: in vivo
[3] = Volume of distribution at steady state in cynomolgus monkey at 1 mg/kg, iv; format: ADME, organism-based, Macaca fascicularis; details: in vivo
[4] = Metabolic stability in human hepatocytes assessed as parent compound remaining at 0.5 uM measured after 2 hrs by LC-MS/MS analysis; format: ADME, cell-based, Hepatocyte
[5] = Clearance in cynomolgus monkey at 1 mg/kg, iv; format: ADME, organism-based, Macaca fascicularis; details: in vivo
[6] = MRT (infinity) in Beagle dog at 1 mg/kg, iv; format: ADME, organism-based, Canis lupus familiaris; details: in vivo
[7] = biological target: T1, Phosphatidylinositol 4,5-bisphosphate 3-kinase catalytic subunit delta isoform (Homo sapiens, UniProt O00329); assay: Inhibition of PI3Kdelta (unknown origin) using PIP2 as substrate preincubated for 1 hr followed by substrate addition and measured after 60 mins in presence of ATP by ADP-glo assay
T1 sequence (O00329 whole entry): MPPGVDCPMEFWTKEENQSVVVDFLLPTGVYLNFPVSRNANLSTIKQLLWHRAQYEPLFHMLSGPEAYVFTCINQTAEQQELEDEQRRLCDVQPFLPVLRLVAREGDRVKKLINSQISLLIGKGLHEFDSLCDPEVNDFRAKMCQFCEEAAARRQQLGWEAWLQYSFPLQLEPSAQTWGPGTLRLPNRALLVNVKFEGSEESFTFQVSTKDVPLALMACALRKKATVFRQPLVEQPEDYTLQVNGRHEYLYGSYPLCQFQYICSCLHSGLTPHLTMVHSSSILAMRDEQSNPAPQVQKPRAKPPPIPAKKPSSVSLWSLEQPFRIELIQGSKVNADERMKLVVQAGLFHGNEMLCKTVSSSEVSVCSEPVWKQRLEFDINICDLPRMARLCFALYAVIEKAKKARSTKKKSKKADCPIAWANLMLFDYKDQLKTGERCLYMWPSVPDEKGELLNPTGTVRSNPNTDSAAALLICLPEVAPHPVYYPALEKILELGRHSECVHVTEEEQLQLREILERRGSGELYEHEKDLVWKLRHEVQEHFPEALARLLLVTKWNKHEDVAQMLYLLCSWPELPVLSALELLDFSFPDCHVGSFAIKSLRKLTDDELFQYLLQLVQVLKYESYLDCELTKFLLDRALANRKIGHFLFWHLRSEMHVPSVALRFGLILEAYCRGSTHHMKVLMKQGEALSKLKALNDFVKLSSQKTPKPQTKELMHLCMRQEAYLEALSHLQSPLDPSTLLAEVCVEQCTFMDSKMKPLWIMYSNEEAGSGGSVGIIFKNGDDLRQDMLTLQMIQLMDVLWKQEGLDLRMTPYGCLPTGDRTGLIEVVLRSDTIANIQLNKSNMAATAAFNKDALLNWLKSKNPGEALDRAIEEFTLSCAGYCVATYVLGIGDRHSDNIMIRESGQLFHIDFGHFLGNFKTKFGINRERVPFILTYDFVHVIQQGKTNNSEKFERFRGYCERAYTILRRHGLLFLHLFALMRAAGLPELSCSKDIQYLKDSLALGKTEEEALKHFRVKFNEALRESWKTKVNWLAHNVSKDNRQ

[8] = Clearance in Beagle dog at 1 mg/kg, iv; format: ADME, organism-based, Canis lupus familiaris; details: in vivo
Cytochrome P450 2C8 = biological target: T2, Cytochrome P450 2C8 (Homo sapiens, UniProt P10632); assay: Time dependent inhibition of CYP2C8 in human liver microsomes at 40 uM measured after 5 to 20 mins in presence of NADPH by LC/MS/MS analysis; format: ADME, Microsome
T2 sequence (P10632 whole entry): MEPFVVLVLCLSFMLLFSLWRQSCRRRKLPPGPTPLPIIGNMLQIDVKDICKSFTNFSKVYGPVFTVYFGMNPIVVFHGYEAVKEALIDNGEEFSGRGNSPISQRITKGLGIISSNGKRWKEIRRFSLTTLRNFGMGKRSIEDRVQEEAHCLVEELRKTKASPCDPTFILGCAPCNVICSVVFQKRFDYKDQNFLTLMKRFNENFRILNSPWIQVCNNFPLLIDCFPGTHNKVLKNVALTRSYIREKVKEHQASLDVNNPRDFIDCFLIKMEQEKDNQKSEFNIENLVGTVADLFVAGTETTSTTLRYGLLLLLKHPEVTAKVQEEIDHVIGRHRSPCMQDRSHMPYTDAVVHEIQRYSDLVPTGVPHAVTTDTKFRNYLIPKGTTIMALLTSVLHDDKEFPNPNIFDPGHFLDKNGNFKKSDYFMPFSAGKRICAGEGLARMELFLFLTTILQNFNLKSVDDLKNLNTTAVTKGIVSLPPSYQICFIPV

Cytochrome P450 2C19 = Cytochrome P450 2C19 (Homo sapiens, UniProt P33261); assay: Time dependent inhibition of CYP2C19 in human liver microsomes at 40 uM using (S)-mephenytoin as substrate measured after 5 to 20 mins in presence of NADPH by LC/MS/MS analysis; format: ADME, Microsome
Sequence of Cytochrome P450 2C19 (P33261 whole entry): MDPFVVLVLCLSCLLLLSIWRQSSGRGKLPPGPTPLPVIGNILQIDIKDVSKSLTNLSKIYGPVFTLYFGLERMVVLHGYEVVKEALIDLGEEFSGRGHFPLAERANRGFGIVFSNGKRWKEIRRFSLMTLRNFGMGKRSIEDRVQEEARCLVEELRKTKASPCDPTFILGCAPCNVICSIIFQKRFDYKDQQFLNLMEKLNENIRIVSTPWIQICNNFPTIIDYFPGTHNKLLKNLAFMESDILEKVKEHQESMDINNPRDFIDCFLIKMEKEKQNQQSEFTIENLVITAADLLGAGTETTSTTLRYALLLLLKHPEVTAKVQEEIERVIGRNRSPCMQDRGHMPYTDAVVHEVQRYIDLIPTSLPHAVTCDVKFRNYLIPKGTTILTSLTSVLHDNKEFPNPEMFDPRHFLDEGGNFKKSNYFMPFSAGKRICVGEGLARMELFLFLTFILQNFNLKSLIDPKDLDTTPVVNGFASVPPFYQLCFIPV

Cytochrome P450 2C9 = Cytochrome P450 2C9 (Homo sapiens, UniProt P11712); assay: Time dependent inhibition of CYP2C9 in human liver microsomes at 40 uM using diclofenac as substrate measured after 5 to 20 mins in presence of NADPH by LC/MS/MS analysis; format: ADME, Microsome
Sequence of Cytochrome P450 2C9 (P11712 whole entry): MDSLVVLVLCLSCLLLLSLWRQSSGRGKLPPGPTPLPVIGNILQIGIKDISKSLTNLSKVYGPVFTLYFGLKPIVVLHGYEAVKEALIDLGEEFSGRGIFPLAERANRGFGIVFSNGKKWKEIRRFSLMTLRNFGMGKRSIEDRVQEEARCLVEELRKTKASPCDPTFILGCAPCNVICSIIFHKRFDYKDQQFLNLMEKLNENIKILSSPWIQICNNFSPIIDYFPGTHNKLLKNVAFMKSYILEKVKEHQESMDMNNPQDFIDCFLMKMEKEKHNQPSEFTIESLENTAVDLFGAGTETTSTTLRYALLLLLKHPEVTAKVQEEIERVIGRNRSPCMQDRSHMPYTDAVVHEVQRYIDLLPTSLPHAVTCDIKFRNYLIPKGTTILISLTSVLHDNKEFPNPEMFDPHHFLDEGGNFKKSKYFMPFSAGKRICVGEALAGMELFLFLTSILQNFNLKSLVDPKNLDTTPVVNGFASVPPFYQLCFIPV

[9] = biological target: Voltage-gated inwardly rectifying potassium channel KCNH2 (Homo sapiens, UniProt Q12809); assay: Inhibition of human ERG by patch clamp assay; format: toxicity
Sequence of Voltage-gated inwardly rectifying potassium channel KCNH2 (Q12809 whole entry): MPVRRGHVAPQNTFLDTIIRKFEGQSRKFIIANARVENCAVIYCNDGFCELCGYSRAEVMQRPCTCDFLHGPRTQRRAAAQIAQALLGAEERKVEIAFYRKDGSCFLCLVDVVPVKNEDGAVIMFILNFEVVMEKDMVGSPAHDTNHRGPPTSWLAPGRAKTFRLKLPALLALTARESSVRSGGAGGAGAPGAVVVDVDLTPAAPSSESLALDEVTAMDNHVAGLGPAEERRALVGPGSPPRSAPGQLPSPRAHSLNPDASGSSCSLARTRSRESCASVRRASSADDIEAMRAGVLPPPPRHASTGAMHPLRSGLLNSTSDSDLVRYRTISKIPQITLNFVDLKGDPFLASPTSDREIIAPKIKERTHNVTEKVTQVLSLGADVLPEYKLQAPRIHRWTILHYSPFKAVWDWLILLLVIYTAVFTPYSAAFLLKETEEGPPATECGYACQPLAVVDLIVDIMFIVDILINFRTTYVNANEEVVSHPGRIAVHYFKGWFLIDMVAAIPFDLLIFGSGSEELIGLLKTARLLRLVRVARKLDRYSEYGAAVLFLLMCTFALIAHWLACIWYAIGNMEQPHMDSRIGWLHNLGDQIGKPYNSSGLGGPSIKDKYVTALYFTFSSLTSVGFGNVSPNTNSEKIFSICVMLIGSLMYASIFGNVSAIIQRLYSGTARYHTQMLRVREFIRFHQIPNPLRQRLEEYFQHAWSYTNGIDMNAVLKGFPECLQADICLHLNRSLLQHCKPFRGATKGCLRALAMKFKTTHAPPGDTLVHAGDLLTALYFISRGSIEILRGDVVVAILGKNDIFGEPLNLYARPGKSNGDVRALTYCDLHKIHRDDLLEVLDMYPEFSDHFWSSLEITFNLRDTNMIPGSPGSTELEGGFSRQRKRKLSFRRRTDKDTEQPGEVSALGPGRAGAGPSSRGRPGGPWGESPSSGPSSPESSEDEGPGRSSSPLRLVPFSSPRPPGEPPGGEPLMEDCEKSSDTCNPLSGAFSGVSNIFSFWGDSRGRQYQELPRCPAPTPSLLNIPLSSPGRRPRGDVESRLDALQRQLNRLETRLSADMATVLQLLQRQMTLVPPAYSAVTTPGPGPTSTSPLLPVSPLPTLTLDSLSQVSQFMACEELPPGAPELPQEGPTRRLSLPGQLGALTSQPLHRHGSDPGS

Cytochrome P450 1A2 = biological target: T3, Cytochrome P450 1A2 (Homo sapiens, UniProt P05177); assay: Time dependent inhibition of CYP1A2 in human liver microsomes at 40 uM using phenacetin as substrate measured after 5 to 20 mins in presence of NADPH by LC/MS/MS analysis; format: ADME, Microsome
T3 sequence (P05177 whole entry): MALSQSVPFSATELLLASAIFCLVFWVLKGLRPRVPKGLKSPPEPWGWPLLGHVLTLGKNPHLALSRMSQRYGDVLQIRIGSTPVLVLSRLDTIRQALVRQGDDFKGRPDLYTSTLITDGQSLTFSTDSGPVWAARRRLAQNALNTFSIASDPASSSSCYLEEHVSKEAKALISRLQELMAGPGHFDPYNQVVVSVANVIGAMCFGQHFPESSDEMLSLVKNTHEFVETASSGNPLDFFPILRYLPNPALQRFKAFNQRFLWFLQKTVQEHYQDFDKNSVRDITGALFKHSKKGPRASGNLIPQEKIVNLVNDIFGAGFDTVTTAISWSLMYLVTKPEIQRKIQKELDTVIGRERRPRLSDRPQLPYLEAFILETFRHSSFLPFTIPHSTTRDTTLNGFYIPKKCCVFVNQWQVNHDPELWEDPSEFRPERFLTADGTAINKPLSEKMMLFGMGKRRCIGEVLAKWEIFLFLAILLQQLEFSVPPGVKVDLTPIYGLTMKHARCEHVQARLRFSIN

Cytochrome P450 3A4 = Cytochrome P450 3A4 (Homo sapiens, UniProt P08684); assay: Time dependent inhibition of CYP3A4 in human liver microsomes at 40 uM using midazolam as substrate measured after 5 to 20 mins in presence of NADPH by LC/MS/MS analysis; format: ADME, Microsome
Sequence of Cytochrome P450 3A4 (P08684 whole entry): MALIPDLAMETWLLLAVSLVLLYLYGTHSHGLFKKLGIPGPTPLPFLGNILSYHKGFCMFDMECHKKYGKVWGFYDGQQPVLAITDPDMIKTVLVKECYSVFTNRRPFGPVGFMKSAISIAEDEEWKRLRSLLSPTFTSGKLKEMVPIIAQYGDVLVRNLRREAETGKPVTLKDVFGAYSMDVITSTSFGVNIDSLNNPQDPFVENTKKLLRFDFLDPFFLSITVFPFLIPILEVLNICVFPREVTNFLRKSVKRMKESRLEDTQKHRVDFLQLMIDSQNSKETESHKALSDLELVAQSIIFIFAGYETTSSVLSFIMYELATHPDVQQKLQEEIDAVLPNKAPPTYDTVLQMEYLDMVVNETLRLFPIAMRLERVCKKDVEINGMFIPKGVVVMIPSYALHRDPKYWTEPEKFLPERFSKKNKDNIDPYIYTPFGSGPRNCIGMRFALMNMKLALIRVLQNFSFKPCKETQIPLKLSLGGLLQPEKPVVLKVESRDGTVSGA

| fraction unbound [1] | AUC(0-inf) [2] [ng·h/mL] | Vdss [3] [L/kg] | Stability [4] [%] | clearance [5] [mL/min/kg] | MRT inf [6] [h] | IC50 [7] [µM] | clearance [8] [mL/min/kg] | IC50 (Cytochrome P450 2C8) [µM] | IC50 (Cytochrome P450 2C19) [µM] | IC50 (Cytochrome P450 2C9) [µM] | IC50 (Cytochrome P450 1A2) [µM] | IC50 (Cytochrome P450 3A4) [µM] | Compound | IC50 [9] [µM] |
| --- | --- | --- | --- | --- | --- | --- | --- | --- | --- | --- | --- | --- | --- | --- |
| 0.05 | 949 | 3.77 | 58 | 17.7 | 3.85 | 1.65 | 14 |  |  |  |  |  | C[C@@H](C1CC1)N1Cc2cc(-c3ccn4nc(N)c(C(=O)N[C@H]5CC[C@@](C)(O)CC5)c4n3)cc(OC(F)(F)F)c2C1=O |  |
| 0.034 | 925 | 3.69 | 94 | 18 | 5.92 | 1.08 | 9.67 | > 20 | > 20 | > 20 | > 20 | > 20 | C[C@@H](C1CC1)N1Cc2cc(-c3ccn4nc(N)c(C(=O)N[C@H]5CC[C@@](C)(O)CC5)c4n3)cc(OC(F)F)c2C1=O | > 10 |
